From US20240132521A1, “COMPOUNDS AND METHODS FOR MODULATING HER2” (Iambic Therapeutics, Inc., priority 2022, published 2024) come the findings set out here.

Common to all, as to format: cell-based
Assay [1] concerns the target BaF3_HER2YVMA cells (Homo sapiens, UniProt P04626, DUP772-775, cells depend on it). Kind of assay: Cell growth inhibition assay (CellTiterGlo), BaF3_HER2YVMA.
Assay [2] addresses BaF3_EGFRWT cells (Homo sapiens, UniProt P00533). The experiment in a line: Cell growth inhibition assay (CellTiterGlo), BaF3_EGFRWT.
The target of assay [3] is BaF3_HER2WT cells (Homo sapiens, UniProt P04626). Kind of assay: Cell growth inhibition assay (CellTiterGlo), BaF3_HER2WT. A general note: Cellular ATP, detected with luciferase, serves as a proxy for viable cell number.
The mark [4] stands for this setting: cell growth inhibition, 3 days treatment, read-out: HER2 - YVMA IC50.
Setting [5] is: cell growth inhibition, 80 ng/mL EGF, 3 days treatment, read-out: EGFR WT IC50.
The mark [6] stands for this setting: cell growth inhibition, 3 days treatment, read-out: HER2 WT IC50.
The mark [7] stands for this setting: 3-day treatment, CellTiterGlo, read-out: Cell growth inhibition activity, HER2 - YVMA.
The mark [8] stands for this setting: 3-day treatment, CellTiterGlo, read-out: Cell growth inhibition activity, EGFR WT.
The mark [9] stands for this setting: 3-day treatment, CellTiterGlo, read-out: Cell growth inhibition activity, HER2 WT.

Where two headings read alike, the source gives them in different places.

Chain of BaF3_EGFRWT cells (P00533 whole entry, change not shown): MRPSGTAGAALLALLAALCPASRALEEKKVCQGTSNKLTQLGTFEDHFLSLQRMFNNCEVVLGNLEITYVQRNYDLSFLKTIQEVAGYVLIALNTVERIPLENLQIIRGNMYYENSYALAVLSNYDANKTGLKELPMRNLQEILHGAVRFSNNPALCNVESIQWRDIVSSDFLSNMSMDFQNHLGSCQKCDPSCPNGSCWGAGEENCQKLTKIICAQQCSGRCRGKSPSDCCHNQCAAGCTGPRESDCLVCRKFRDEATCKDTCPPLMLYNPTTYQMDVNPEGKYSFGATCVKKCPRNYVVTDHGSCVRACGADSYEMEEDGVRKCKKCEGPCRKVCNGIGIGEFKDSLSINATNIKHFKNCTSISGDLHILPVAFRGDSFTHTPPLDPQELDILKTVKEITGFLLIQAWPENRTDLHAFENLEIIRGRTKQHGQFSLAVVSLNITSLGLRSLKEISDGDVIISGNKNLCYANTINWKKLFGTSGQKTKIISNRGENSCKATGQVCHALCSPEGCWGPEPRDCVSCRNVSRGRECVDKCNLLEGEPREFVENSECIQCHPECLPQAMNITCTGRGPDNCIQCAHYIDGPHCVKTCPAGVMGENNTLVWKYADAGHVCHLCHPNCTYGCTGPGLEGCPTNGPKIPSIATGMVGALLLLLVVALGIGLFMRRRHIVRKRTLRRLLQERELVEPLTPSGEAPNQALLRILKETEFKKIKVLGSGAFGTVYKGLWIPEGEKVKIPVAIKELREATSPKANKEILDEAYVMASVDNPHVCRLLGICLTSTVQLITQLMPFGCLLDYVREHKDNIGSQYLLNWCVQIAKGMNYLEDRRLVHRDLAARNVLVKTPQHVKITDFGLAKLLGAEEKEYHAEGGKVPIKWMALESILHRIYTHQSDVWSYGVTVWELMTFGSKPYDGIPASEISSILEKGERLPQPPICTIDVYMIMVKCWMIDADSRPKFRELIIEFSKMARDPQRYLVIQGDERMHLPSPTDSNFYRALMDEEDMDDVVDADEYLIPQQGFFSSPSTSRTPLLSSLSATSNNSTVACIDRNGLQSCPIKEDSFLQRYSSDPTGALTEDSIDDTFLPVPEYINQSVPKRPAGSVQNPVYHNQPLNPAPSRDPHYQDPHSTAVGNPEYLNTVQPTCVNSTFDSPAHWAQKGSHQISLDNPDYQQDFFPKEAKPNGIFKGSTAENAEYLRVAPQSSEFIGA
Chain of BaF3_HER2WT cells (P04626 whole entry, change not shown): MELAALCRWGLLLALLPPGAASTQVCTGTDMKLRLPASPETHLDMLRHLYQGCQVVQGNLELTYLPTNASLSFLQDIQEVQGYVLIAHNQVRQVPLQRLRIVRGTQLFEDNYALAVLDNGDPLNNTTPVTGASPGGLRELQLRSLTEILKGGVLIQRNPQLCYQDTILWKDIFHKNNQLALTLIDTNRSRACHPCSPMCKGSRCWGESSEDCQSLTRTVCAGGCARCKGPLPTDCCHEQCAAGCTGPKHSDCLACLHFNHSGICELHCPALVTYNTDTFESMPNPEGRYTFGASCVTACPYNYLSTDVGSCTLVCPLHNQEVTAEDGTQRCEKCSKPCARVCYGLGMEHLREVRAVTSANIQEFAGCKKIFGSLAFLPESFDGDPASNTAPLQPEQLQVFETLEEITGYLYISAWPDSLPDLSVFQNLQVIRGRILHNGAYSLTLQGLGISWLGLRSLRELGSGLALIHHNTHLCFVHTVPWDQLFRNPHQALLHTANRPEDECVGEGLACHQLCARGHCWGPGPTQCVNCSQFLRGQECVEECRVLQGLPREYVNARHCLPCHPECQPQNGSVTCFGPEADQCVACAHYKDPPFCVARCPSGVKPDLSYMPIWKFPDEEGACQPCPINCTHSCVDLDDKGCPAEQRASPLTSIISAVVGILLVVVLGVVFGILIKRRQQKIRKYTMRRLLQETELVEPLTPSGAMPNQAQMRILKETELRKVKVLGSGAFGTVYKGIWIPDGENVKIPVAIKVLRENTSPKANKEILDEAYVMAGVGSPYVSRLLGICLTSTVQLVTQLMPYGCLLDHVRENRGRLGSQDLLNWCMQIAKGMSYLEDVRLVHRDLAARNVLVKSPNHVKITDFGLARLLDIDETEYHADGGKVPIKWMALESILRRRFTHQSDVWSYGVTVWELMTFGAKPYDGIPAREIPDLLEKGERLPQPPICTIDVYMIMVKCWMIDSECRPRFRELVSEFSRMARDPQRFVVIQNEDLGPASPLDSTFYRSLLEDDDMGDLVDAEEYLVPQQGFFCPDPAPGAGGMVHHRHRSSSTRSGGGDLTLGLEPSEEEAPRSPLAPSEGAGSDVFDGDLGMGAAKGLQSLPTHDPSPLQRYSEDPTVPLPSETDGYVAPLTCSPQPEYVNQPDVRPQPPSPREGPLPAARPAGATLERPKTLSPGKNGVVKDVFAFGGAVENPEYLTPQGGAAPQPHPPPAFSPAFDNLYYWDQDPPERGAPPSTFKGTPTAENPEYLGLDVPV
Chain of BaF3_HER2YVMA cells (P04626 with tags, fused parts or gaps DUP772-775): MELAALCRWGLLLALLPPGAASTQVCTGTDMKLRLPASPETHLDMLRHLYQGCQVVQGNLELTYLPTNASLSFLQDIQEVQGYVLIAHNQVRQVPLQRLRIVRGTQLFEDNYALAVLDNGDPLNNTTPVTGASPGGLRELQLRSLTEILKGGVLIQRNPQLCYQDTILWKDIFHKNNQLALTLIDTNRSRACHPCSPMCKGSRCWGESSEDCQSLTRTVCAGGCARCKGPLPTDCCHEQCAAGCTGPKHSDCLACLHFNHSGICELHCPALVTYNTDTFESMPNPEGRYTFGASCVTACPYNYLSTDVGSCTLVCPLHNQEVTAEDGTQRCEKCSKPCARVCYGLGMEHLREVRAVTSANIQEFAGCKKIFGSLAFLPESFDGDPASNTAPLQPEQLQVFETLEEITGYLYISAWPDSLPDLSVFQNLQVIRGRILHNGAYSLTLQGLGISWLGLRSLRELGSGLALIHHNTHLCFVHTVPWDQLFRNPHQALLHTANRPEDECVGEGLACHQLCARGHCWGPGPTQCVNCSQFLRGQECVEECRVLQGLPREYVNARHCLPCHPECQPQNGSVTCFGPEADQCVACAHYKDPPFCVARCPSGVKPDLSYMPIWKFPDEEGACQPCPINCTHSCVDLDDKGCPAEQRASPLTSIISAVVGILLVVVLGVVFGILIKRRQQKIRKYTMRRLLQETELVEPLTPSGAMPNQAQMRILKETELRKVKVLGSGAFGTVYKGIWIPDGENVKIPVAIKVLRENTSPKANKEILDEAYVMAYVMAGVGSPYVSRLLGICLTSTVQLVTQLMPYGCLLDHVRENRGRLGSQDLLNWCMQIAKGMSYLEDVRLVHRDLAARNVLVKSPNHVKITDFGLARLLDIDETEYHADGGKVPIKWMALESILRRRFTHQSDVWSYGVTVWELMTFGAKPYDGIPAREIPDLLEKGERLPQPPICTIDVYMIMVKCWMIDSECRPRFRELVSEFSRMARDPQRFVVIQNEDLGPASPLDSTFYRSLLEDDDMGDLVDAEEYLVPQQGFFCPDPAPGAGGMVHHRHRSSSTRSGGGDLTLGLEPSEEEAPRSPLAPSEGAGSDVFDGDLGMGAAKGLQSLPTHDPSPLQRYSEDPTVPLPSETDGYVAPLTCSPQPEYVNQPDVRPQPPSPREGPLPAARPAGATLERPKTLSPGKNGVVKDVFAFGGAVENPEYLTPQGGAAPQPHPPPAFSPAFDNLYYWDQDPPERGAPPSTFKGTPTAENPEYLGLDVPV

For the molecule `Cc1cc(Nc2ncnn3ccc(C4CN(C(=O)/C=C/C5CCCN5C)C4)c23)ccc1Oc1ccn2ncnc2c1` (single isomer, unassigned) [Examples 171 and 172, second eluting isomer, (E)-1-(3-(4-((4-([1,2,4]triazolo[1,5-a]pyridin-7-yloxy)-3-methylphenyl)amino)pyrrolo[2,1-f][1,2,4]triazin-5-yl)azetidin-1-yl)-3-(1-methylpyrrolidin-2-yl)prop-2-en-1-one], the GI50 in assay [1] (setting [4]) was below 200 nM; in assay [2] (setting [5]), 1500 to 5000 nM; in assay [3] (setting [6]), below 200 nM.
As to `Cc1cc(Nc2ncnn3ccc(N4CCC(N(C)C(=O)/C=C/CN(C)C)CC4)c23)ccc1Oc1ccn2ncnc2c1` [Example 73, (E)-N-(1-(4-((4-([1,2,4]triazolo[1,5-a]pyridin-7-yloxy)-3-methylphenyl)amino)pyrrolo[2,1-f][1,2,4]triazin-5-yl)piperidin-4-yl)-4-(dimethylamino)-N-methylbut-2-enamide], the GI50 in assay [1] (setting [7]) is 500 to 1500 nM; in assay [2] (setting [8]), 1500 to 5000 nM; in assay [3] (setting [9]), below 200 nM.
As for `C=CC(=O)N(C)C1CCN(c2ccn3ncnc(Nc4ccc(Oc5ccn6ncnc6c5)c(C)c4)c23)C1` (stereo not drawn) [Example 72, N-(1-(4-((4-([1,2,4]triazolo[1,5-a]pyridin-7-yloxy)-3-methylphenyl)amino)pyrrolo[2,1-f][1,2,4]triazin-5-yl)pyrrolidin-3-yl)-N-methylacrylamide], the GI50 is below 200 nM in assay [1] (setting [7]), 1500 to 5000 nM in assay [2] (setting [8]) and below 200 nM in assay [3] (setting [9]).
As for `Cc1cc(Nc2ncnn3ccc(N4CCCN(C(=O)/C=C/CN5CCOCC5)CC4)c23)ccc1Oc1ccn2ncnc2c1` [Example 80, (E)-1-(4-(4-((4-([1,2,4]triazolo[1,5-a]pyridin-7-yloxy)-3-methylphenyl)amino)pyrrolo[2,1-f][1,2,4]triazin-5-yl)-1,4-diazepan-1-yl)-4-morpholinobut-2-en-1-one], the GI50 was 1500 to 5000 nM in assay [1] (setting [7]), 1500 to 5000 nM in assay [2] (setting [8]) and below 200 nM in assay [3] (setting [9]).
In the case of `C=CC(=O)N1CC(c2ccn3ncnc(Nc4ccc(Oc5ccn6ncnc6c5)c(C)c4)c23)C1` [Example 3, 1-(3-(4-((4-([1,2,4]triazolo[1,5-a]pyridin-7-yloxy)-3-methylphenyl)amino)pyrrolo[2,1-f][1,2,4]triazin-5-yl)azetidin-1-yl)prop-2-en-1-one], the GI50 in assay [1] (setting [7]) is below 200 nM; in assay [2] (setting [8]), 500 to 1500 nM; in assay [3] (setting [9]), below 200 nM.
Consider `Cc1cc(Nc2ncnn3ccc(C4=CCN(C(=O)/C=C/CN(C)C)C4)c23)ccc1Oc1ccn2ncnc2c1` [Example 29, (E)-1-(3-(4-((4-([1,2,4]triazolo[1,5-a]pyridin-7-yloxy)-3-methylphenyl)amino)pyrrolo[2,1-f][1,2,4]triazin-5-yl)-2,5-dihydro-1H-pyrrol-1-yl)-4-(dimethylamino)but-2-en-1-one acetate], for which the GI50 was 1500 to 5000 nM in assay [1] (setting [7]), 1500 to 5000 nM in assay [2] (setting [8]) and below 200 nM in assay [3] (setting [9]).
`Cc1cc(Nc2ncnn3ccc(C4CCN(C(=O)/C=C/CN5CC(F)C5)CC4)c23)ccc1Oc1ccn2ncnc2c1` [Example 163, (E)-1-(4-(4-((4-([1,2,4]triazolo[1,5-a]pyridin-7-yloxy)-3-methylphenyl)amino)pyrrolo[2,1-f][1,2,4]triazin-5-yl)piperidin-1-yl)-4-(3-fluoroazetidin-1-yl)but-2-en-1-one]: the GI50 was below 200 nM in assay [1] (setting [7]), 1500 to 5000 nM in assay [2] (setting [8]) and below 200 nM in assay [3] (setting [9]).
Consider `Cc1cc(Nc2ncnn3ccc(C4CCCN(C(=O)/C=C/CN(C)C)CC4)c23)ccc1Oc1ccn2ncnc2c1` (single isomer, unassigned) [Examples 109 and 110, first eluting isomer, (E)-1-(4-(4-((4-([1,2,4]triazolo[1,5-a]pyridin-7-yloxy)-3-methylphenyl)amino)pyrrolo[2,1-f][1,2,4]triazin-5-yl)azepan-1-yl)-4-(dimethylamino)but-2-en-1-one], for which the figures for the GI50 in assay [1] (setting [4]), in assay [2] (setting [5]) and in assay [3] (setting [6]) were below 200 nM, 1500 to 5000 nM and below 200 nM, respectively.
In the case of `Cc1cc(Nc2ncnn3ccc(C4CN(C(=O)/C=C/CN(C)C)C4)c23)ccc1Oc1ccn2cnnc2c1` [Example 134, (E)-1-(3-(4-((4-([1,2,4]triazolo[4,3-a]pyridin-7-yloxy)-3-methylphenyl)amino)pyrrolo[2,1-f][1,2,4]triazin-5-yl)azetidin-1-yl)-4-(dimethylamino)but-2-en-1-one], the GI50 in assay [1] (setting [7]) is 1500 to 5000 nM; in assay [2] (setting [8]) it was 1500 to 5000 nM; in assay [3] (setting [9]), 200 to 500 nM.
On to `COC1CCN(C/C=C/C(=O)N2CCC(c3ccn4ncnc(Nc5ccc(Oc6ccn7ncnc7c6)c(C)c5)c34)CC2)C1` (stereo not drawn) [Example 118, E-1-(4-(4-((4-([1,2,4]triazolo[1,5-a]217midazol-7-yloxy)-3-methylphenyl)amino)pyrrolo[2,1-f][1,2,4]triazin-5-yl)piperidin-1-yl)-4-(3-methoxypyrrolidin-1-yl)but-2-en-1-one], for which the GI50 in assay [1] (setting [7]) is below 200 nM; in assay [2] (setting [8]), 1500 to 5000 nM; in assay [3] (setting [9]) it was below 200 nM.
Consider `Cc1cc(Nc2ncnn3ccc(C4CCN(C(=O)/C=C/CN5CCC6(COC6)C5)CC4)c23)ccc1Oc1ccc2c(c1)ncn2C` [Example 129, (E)-1-(4-(4-((3-methyl-4-((1-methyl-1H-benzo[d]imidazol-5-yl)-oxy)phenyl)amino)-pyrrolo[2,1-f][1,2,4]triazin-5-yl)piperidin-1-yl)-4-(2-oxa-6-azaspiro[3.4]octan-6-yl)but-2-en-1-one], for which the GI50 in assay [1] (setting [7]) is below 200 nM; in assay [2] (setting [8]) it was 1500 to 5000 nM; in assay [3] (setting [9]) it was below 200 nM.
Take `Cc1cc(Nc2ncnn3ccc(C4CN(C(=O)/C(F)=C/C5CCCN5C)C4)c23)ccc1Oc1ccn2ncnc2c1` (stereo not drawn) [Example 92, (Z)-1-(3-(4-((4-([1,2,4]triazolo[1,5-a]pyridin-7-yloxy)-3-methylphenyl)amino)pyrrolo[2,1-f][1,2,4]triazin-5-yl)azetidin-1-yl)-2-fluoro-3-(1-methylpyrrolidin-2-yl)prop-2-en-1-one]: the values for the GI50 in assay [1] (setting [7]), in assay [2] (setting [8]) and in assay [3] (setting [9]) were below 200 nM, 1500 to 5000 nM and below 200 nM, respectively.
For `C=CC(=O)N1CCCC(c2ccn3ncnc(Nc4ccc(Oc5ccn6ncnc6c5)c(C)c4)c23)CC1` (single isomer, unassigned) [Examples 111 and 112, first eluting isomer, 1-(4-(4-((4-([1,2,4]triazolo[1,5-a]pyridin-7-yloxy)-3-methylphenyl)amino)pyrrolo-[2,1-f][1,2,4]triazin-5-yl)azepan-1-yl)prop-2-en-1-one], the GI50 in assay [1] (setting [4]) is below 200 nM; in assay [2] (setting [5]) it was 1500 to 5000 nM; in assay [3] (setting [6]), below 200 nM.
With `Cc1cc(Nc2ncnn3ccc(C4CN(C(=O)/C=C/CN5CC(F)C5)C4)c23)ccc1Oc1ccn2ncnc2c1` [Example 38, (E)-1-(3-(4-((4-([1,2,4]triazolo[1,5-a]pyridin-7-yloxy)-3-methylphenyl)amino)pyrrolo[2,1-f][1,2,4]triazin-5-yl)azetidin-1-yl)-4-(3-fluoroazetidin-1-yl)but-2-en-1-one], the GI50 in assay [1] (setting [7]) was below 200 nM; in assay [2] (setting [8]), 1500 to 5000 nM; in assay [3] (setting [9]), below 200 nM.
Regarding `Cc1cc(Nc2ncnn3ccc(C4CCN(C(=O)C#CCN(C)C)CC4)c23)ccc1Oc1ccn2ncnc2c1` [Example 64, 1-(4-(4-((4-([1,2,4]triazolo[1,5-a]pyridin-7-yloxy)-3-methylphenyl)amino)pyrrolo[2,1-f][1,2,4]triazin-5-yl)piperidin-1-yl)-4-(dimethylamino)but-2-yn-1-one], the GI50 in assay [1] (setting [7]) was below 200 nM; in assay [2] (setting [8]) it was 200 to 500 nM; in assay [3] (setting [9]), below 200 nM.
On to `Cc1cc(Nc2ncnn3ccc(C4CCN(C(=O)C5CC(=O)N5)CC4)c23)ccc1Oc1ccn2ncnc2c1` (stereo not drawn) [Example 36, 4-(4-(4-((4-([1,2,4]triazolo[1,5-a]pyridin-7-yloxy)-3-methylphenyl)amino)pyrrolo[2,1-f][1,2,4]triazin-5-yl)piperidine-1-carbonyl)azetidin-2-one acetate], for which the GI50 in assay [1] (setting [7]), in assay [2] (setting [8]) and in assay [3] (setting [9]) was 1500 to 5000 nM each time.
For the molecule `C=CC(=O)N1CCCC(c2ccn3ncnc(Nc4ccc(Oc5ccn6ncnc6c5)c(C)c4)c23)CC1` (stereo not drawn) [Example 9, 1-(4-(4-((4-([1,2,4]triazolo[1,5-a]pyridin-7-yloxy)-3-methylphenyl)amino)pyrrolo[2,1-f][1,2,4]triazin-5-yl)azepan-1-yl)prop-2-en-1-one], the results for the GI50 in assay [1] (setting [7]), in assay [2] (setting [8]) and in assay [3] (setting [9]) were below 200 nM, 200 to 500 nM and below 200 nM, respectively.
On to `CO[C@H]1CN(C/C=C/C(=O)N2CCC(c3ccn4ncnc(Nc5ccc(Oc6ccn7ncnc7c6)c(C)c5)c34)CC2)C[C@H]1OC` [Example 169, (E)-1-(4-(4-((4-([1,2,4]triazolo[1,5-a]pyridin-7-yloxy)-3-methylphenyl)amino)pyrrolo[2,1-f][1,2,4]triazin-5-yl)piperidin-1-yl)-4-((3R,4S)-3,4-dimethoxypyrrolidin-1-yl)but-2-en-1-one], for which the GI50 in assay [1] (setting [7]) is below 200 nM; in assay [2] (setting [8]), 1500 to 5000 nM; in assay [3] (setting [9]), below 200 nM.
On to `Cc1cc(Nc2ncnn3ccc(C4CCN(C(=O)C(F)Cl)CC4)c23)ccc1Oc1ccn2ncnc2c1` (stereo not drawn) [Example 35, 1-(4-(4-((4-([1,2,4]triazolo[1,5-a]pyridin-7-yloxy)-3-methylphenyl)amino)pyrrolo[2,1-f][1,2,4]triazin-5-yl)piperidin-1-yl)-2-chloro-2-fluoroethan-1-one acetate], for which the GI50 in assay [1] (setting [7]) is below 200 nM; in assay [2] (setting [8]), 1500 to 5000 nM; in assay [3] (setting [9]) it was below 200 nM.
